Results published in patent US20240294572A1, “Antimicrobial Peptides” (priority 2021, published 2024).
Non-standard residues stand in square brackets, D forms with d. Residues, ends and D or L forms follow the SMILES beside them. *: point of attachment. Decanoyl = CCCCCCCCCC(=O)*

Legend:
S. aureus USA300 LAC [1] = assay: Catheter-associated murine biofilm model; assay type: in vivo, mice; conditions: single dose 15 mg/kg (250 μg) into and around catheter, day 3
Experimental: Peptide potency was evaluated in the catheter model as described (Wang, et al. (2014) ACS Chem. Biol., 9:1997-2002; Heim, et al. (2014) Methods Mol. Biol., 1106:183-191). On the day of infection, mice were anesthetized using ketamine/xylazine (100/10 mg/kg). A small incision was made on the left flank region of the mouse, and using small blunt spatula, a pouch was made for catheter insertion. A sterile catheter with a length of 1 cm was inserted into the pouch aseptically. The wound was sealed using wound closure VetBond™ glue. Bacterial inoculum (20 μL with 10^3 CFU) was injected into the lumen of the catheter. Two hours post infection, the peptide was injected at 15 mg/kg (50 μL at each of the five sites in and around the catheter). Mice were allowed full recovery from anesthesia in an oxygen-enriched chamber. Three days after infection, untreated and treated animal groups were CO2 euthanized and the tissue around the catheter was harvested along with the catheter. A bacterial uninfected catheter group was included as a negative control. All the catheters were sonicated at 37 kHz for 15 minutes to release the bacteria in biofilms, and the tissues were homogenized. […] Degree of significance was represented as *p<0.05**p<0.01, ***p<0.001, and NS means no significance (determined by nonparametric, unpaired, Mann-Whitney test).

[2] = test system: S. aureus USA300 transposon mutant SAUSA300_0645 (graR); assay: Antimicrobial susceptibility of transposon mutant; assay type: cell-based; conditions: mutant SAUSA300_0645 graR versus WT
Experimental: (§1) The antimicrobial susceptibility of over 20 MRSA transposon mutants were also tested, based on a transposon library screening, in the presence of LL-37 peptides (Golla, et al. (2020) ACS Infect. Dis., 6:1866-1881). This Nebraska Transposon Mutant Library of S. aureus USA300 consists of 1920 mutants, each with one nonessential gene disabled due to a transposon insertion (Fey, et al. (2013) mBio 4:e00537-12). The correct insertion of the transposon to each Staph mutant had been verified (Golla, et al. (2020) ACS Infect. Dis., 6:1866-1881). Antimicrobial susceptibility to the new peptide C10-KR8d was evaluated in the same manner as MIC assays. Susceptible strains could be inhibited at a peptide concentration lower than the MIC against the wild strain S. aureus JE2.

[3] = test system: S. aureus USA300 transposon mutant SAUSA300_0988 (trkA); assay: Antimicrobial susceptibility of transposon mutant; assay type: cell-based; conditions: mutant SAUSA300_0988 trkA versus WT
Experimental: as §1

[4] = test system: S. aureus USA300 transposon mutant SAUSA300_1865 (vraR); assay: Antimicrobial susceptibility of transposon mutant; assay type: cell-based; conditions: mutant SAUSA300_1865 vraR versus WT
Experimental: as §1

[5] = test system: S. aureus USA300 transposon mutant SAUSA300_0646 (graS); assay: Antimicrobial susceptibility of transposon mutant; assay type: cell-based; conditions: mutant SAUSA300_0646 graS versus WT
Experimental: as §1

[6] = test system: S. aureus USA300 transposon mutant SAUSA300_1255 (mprF); assay: Antimicrobial susceptibility of transposon mutant; assay type: cell-based; conditions: mutant SAUSA300_1255 mprF versus WT
Experimental: as §1

[7] = test system: S. aureus USA300 transposon mutant SAUSA300_1037 (pheS); assay: Antimicrobial susceptibility of transposon mutant; assay type: cell-based; conditions: mutant SAUSA300_1037 pheS versus WT
Experimental: as §1

[8] = test system: S. aureus USA300 transposon mutant SAUSA300_1089 (lspA); assay: Antimicrobial susceptibility of transposon mutant; assay type: cell-based; conditions: mutant SAUSA300_1089 lspA versus WT
Experimental: as §1

[9] = test system: S. aureus USA300 transposon mutant SAUSA300_0647 (vraF); assay type: cell-based
Experimental: as §1

[10] = test system: S. aureus USA300 transposon mutant SAUSA300_1962; assay type: cell-based
Experimental: as §1

[11] = test system: S. aureus USA300 transposon mutant SAUSA300_1036; assay type: cell-based
Experimental: as §1

S. aureus USA300 LAC [12] = assay: Bacterial resistance development, multiple passage experiment; assay type: cell-based; conditions: 14 passages/days at sub-MIC
Experimental: This experiment was performed similar to the MIC determination with a few modifications as described (Mishra, et al. (2019) Proc. Natl. Acad. Sci., 116:13517-13522). In short, an exponential phase S. aureus USA300 culture (i.e., optical density at 600 nm≈0.5) was diluted and partitioned into a 96-well polystyrene microplate with ˜10^5 bacteria per well (90 μL aliquots). After treatment with 10 μL of peptide or nafcillin solutions at various concentrations, microplates were incubated at 37° C. overnight and read on a ChroMate® 4300 Microplate Reader at 630 nm (Awareness Technology, FL). Of the wells with sub-MIC levels of the peptides that retained growth, approximately half of the control wells were again reinoculated in fresh TSB with sub-MIC concertation of peptides or antibiotics to attain exponential phase for MIC determination. Up to 15 serial passages of the bacteria cultures were conducted. The increase in the fold change (MIC on given passage/MIC recorded in first day of passage) was used to determine the degree of drug resistance.

[13] = test system: S. aureus USA300 transposon mutant SAUSA300_1465; assay: Antimicrobial susceptibility of transposon mutant; assay type: cell-based; parameters: key: No = no MIC changes of C10-KR8d against the WT and the mutant S. aureus strains measured in 50% TSB; conditions: mutant SAUSA300_1465 versus WT
Experimental: as §1

[14] = test system: S. aureus USA300 transposon mutant SAUSA300_1503; assay: Antimicrobial susceptibility of transposon mutant; assay type: cell-based; parameters: key: No = no MIC changes of C10-KR8d against the WT and the mutant S. aureus strains measured in 50% TSB; conditions: mutant SAUSA300_1503 versus WT
Experimental: as §1

[15] = test system: S. aureus USA300 transposon mutant SAUSA300_0394; assay: Antimicrobial susceptibility of transposon mutant; assay type: cell-based; parameters: key: No = no MIC changes of C10-KR8d against the WT and the mutant S. aureus strains measured in 50% TSB; conditions: mutant SAUSA300_0394 versus WT
Experimental: as §1

CCCCCCCCCC(=O)N[C@H](CCCCN)C(=O)N[C@H](CCCNC(=N)N)C(=O)N[C@@H](C(=O)N[C@H](Cc1c[nH]c2ccccc12)C(=O)N[C@H](CCC(N)=O)C(=O)N[C@H](CCCNC(=N)N)C(=O)N[C@@H](C(=O)N[C@H](CCCCN)C(N)=O)[C@H](C)CC)[C@H](C)CC [Peptide C10-KR8d] (Decanoyl-[dK][dR][dI][dW][dQ][dR][dI][dK]-NH2)
bacterial burden (CFU) on catheter and surrounding tissue (S. aureus USA300 LAC [1]): clear decrease in bacterial burden
Susceptible? [2]: Yes
Susceptible? [3]: Yes
Susceptible? [4]: Yes
Susceptible? [5]: Yes
Susceptible? [6]: Yes
Susceptible? [7]: Yes
Susceptible? [8]: Yes
Susceptible? ([9]; mutant SAUSA300_0647 vraF versus WT): Yes
MIC ([9]; mutant SAUSA300_0647 vraF, 50% TSB): 1.6 to 3.1 µM
MIC ([10]; mutant SAUSA300_1962, 50% TSB): 1.6 to 3.1 µM
Susceptible? ([10]; mutant SAUSA300_1962 versus WT): Yes
MIC ([11]; mutant SAUSA300_1036, 50% TSB): 1.6 to 3.1 µM
Susceptible? ([11]; mutant SAUSA300_1036 versus WT): Yes
MIC increase in multiple passage experiment (S. aureus USA300 LAC [12]): no changes
Susceptible? [13]: No
Susceptible? [14]: No
Susceptible? [15]: No
